Data on five compounds can be found in ChEMBL document CHEMBL6120982, “Cell-penetrating anti-sense peptide nucleic acids targeting sulfatase 2 inhibit adipogenesis in human mesenchymal stem cells” (Bioorg Med Chem, 2024).

Active and inactive are the calls of the source. The rule behind the calls is not given here. Where only a bound is given, the exact number is not on record here.

In series [1] the test system is DNA. The series can be described thus: Binding affinity to c-DNA (unknown origin) with mismatch bases assessed as increase in melting temperature by UV-vis spectrophotometric analysis. The series is classed as nucleic-acid assay.
Series [2] concerns DNA. Put plainly: Binding affinity to 10-mer DNA (unknown origin) assessed as melting temperature at 4 uM by UV-Vis spectrophotometric analysis. The series is classed as nucleic-acid assay.
Series [3] relates to Mesenchymal stem cells. Put plainly: Anti-adipogenic activity in insulin/dexamthasone/pioglitazone/IBMX differentiated human BMMSC cells assessed as downregulation of adiponectin protein secretion by ELISA. The series is classed as functional, cell-based.
Series [4] has as its system Mesenchymal stem cells. Put plainly: Inhibition of SULF2 mRNA expression in human BMMSC cells by RT-qPCR analysis. The series is classed as functional, cell-based. The note with it: dose 0.01-1 µM.
Series [5] relates to Mesenchymal stem cells. The series can be described thus: Anti-adipogenic activity in insulin/dexamthasone/pioglitazone/IBMX differentiated human BMMSC cells assessed as downregulation of adiponectin protein secretion at 1 uM by ELISA. The series is classed as functional, cell-based. Background: An ELISA detects its analyte on a solid surface through an enzyme-linked reagent.

For series [6], the system named is DNA. The series can be described thus: Binding affinity to C-terminal of 10-mer c-DNA (unknown origin) assessed as melting temperature at 4 uM by UV-Vis spectrophotometric analysis. The series is classed as nucleic-acid assay.
The subject of series [7] is Mesenchymal stem cells. The series can be described thus: Inhibition of SULF2 mRNA expression in human BMMSC cells at 0.1 uM by RT-qPCR analysis. The series is classed as functional, cell-based. Background: Real-time PCR tracks product formation cycle by cycle.
For series [8], the system named is Mesenchymal stem cells. Put plainly: Cytotoxicity against human BMMSC cells assessed as effect on cell viability upto 1 uM incubated for 24 hrs by CCK8 assay. The series is classed as toxicity, cell-based.
Series [9] relates to Mesenchymal stem cells. Put plainly: Effect on osteogenesis in ascorbic acid/dexamethasone/beta-glycerol phosphate differentiated human BMMSC cells. The series is classed as functional, cell-based.
A short description of series [10]: Drug penetration in human BMMSC cells assessed as green fluorescence signal at 0.1 uM incubated for 24 hrs by DAPI staining based confocal microscopic analysis. The series is classed as ADME, cell-based. The note with it: mesenchymal stem cells.
Series [11] has as its system DNA. Put plainly: Binding affinity to N-terminal of 10-mer c-DNA (unknown origin) assessed as melting temperature at 4 uM by UV-Vis spectrophotometric analysis. The series is classed as nucleic-acid assay.
Series [12] has as its system Mesenchymal stem cells. The series can be described thus: Anti-adipogenic activity in insulin/dexamthasone/pioglitazone/IBMX differentiated human BMMSC cells assessed as decrease in size of intracellular lipid droplets by Oil red O staining based inverted microscopic analysis. The note with it: dose 0.01-1 µM. The series is classed as functional, cell-based.
Series [13] concerns Mesenchymal stem cells. Put plainly: Anti-adipogenic activity in insulin/dexamthasone/pioglitazone/IBMX differentiated human BMMSC cells assessed as decrease in number of intracellular lipid droplets by Oil red O staining based inverted microscopic analysis. The series is classed as functional, cell-based. The following applies: dose 0.01-1 µM.

Take `NCCCCCNc1nc(N)c2ncn(CC(=O)N(CCNC(=O)CN(CCNC(=O)CN(CCNC(=O)CN(CCN)C(=O)Cn3cnc4c(N)ncnc43)C(=O)Cn3cnc4c(=O)[nH]c(N)nc43)C(=O)Cn3ccc(N)nc3=O)CC(=O)NCCN(CC(=O)NCCN(CC(=O)NCCN(CC(=O)NCCN(CC(=O)NCCN(CC(=O)NCCN(CC(N)=O)C(=O)Cn3cnc4c(N)ncnc43)C(=O)Cn3ccc(N)nc3=O)C(=O)Cn3cnc4c(N)nc(NCCCCCN)nc43)C(=O)Cn3cnc4c(=O)[nH]c(N)nc43)C(=O)Cn3cnc4c(N)nc(NCCCCCN)nc43)C(=O)Cn3ccc(N)nc3=O)c2n1`: the outcome in series [1] was inactive. For the same compound, the Tm in series [2] is 73.6 °C.

Regarding `Cc1cn(CC(=O)N(CCNC(=O)CN(CCNC(=O)CN(CCNC(=O)CN(CCNC(=O)CN(CCNC(=O)CN(CCNC(=O)CN(CCNC(=O)CN(CCNC(=O)CN(CCNC(=O)CN(CCNC(=O)CN(CCNC(=O)CN(CCNC(=O)CN(CCNC(=O)CN(CCNC(=O)CN(CCNC(=O)CN(CCNC(=O)CN(CCNC(=O)CN(CCNC(=O)CN(CCNC(=O)OCCC2c3ccccc3-c3ccccc32)C(=O)Cn2ccc(N)nc2=O)C(=O)Cn2cc(C)c(=O)[nH]c2=O)C(=O)Cn2cc(C)c(=O)[nH]c2=O)C(=O)Cn2cc3cc(COCCN)[nH]c3nc2=O)C(=O)Cn2cc(C)c(=O)[nH]c2=O)C(=O)Cn2cc(C)c(=O)[nH]c2=O)C(=O)Cn2cc(C)c(=O)[nH]c2=O)C(=O)Cn2cc(C)c(=O)[nH]c2=O)C(=O)Cn2cc(C)c(=O)[nH]c2=O)C(=O)Cn2cc(C)c(=O)[nH]c2=O)C(=O)Cn2cc(C)c(=O)[nH]c2=O)C(=O)Cn2cnc3c(=O)[nH]c(NCCCCCCN)nc32)C(=O)Cn2ccc(N)nc2=O)C(=O)Cn2cc(C)c(=O)[nH]c2=O)C(=O)Cn2cnc3c(=O)[nH]c(N)nc32)C(=O)Cn2cnc3c(N)nc(NCCCCCN)nc32)C(=O)Cn2cc(C)c(=O)[nH]c2=O)C(=O)Cn2ccc(N)nc2=O)CC(=O)NCCN(CC(N)=O)C(=O)Cn2cnc3c(=O)[nH]c(NCCCCCCN)nc32)c(=O)[nH]c1=O`, the IC50 in series [3] was greater than 1 µM. Besides, the inhibition result in series [4] is “Dose-dependent-effect”; in series [7], “Mild_effect”. Moreover, the outcome in series [5] was Active. In addition, in [6], the Tm came to 70 °C. Further, the Activity entry in series [8] was “Non-toxic”. Moreover, the outcome in [9] was inactive.

For the compound `O=C(O)c1ccc2c(c1)C(=O)OC21c2ccc(O)cc2Oc2cc(O)ccc21`, the Drug uptake result in series [10] was “Active”.

Consider `Cc1cn(CC(=O)N(CCNC(=O)CN(CCNC(=O)CN(CCNC(=O)CN(CCNC(=O)CN(CCNC(=O)CN(CCNC(=O)CN(CCNC(=O)CN(CCNC(=O)CN(CCNC(=O)CN(CCNC(=O)CN(CCNC(=O)OCCC2c3ccccc3-c3ccccc32)C(=O)Cn2cc(C)c(=O)[nH]c2=O)C(=O)Cn2cnc3c(=O)[nH]c(N)nc32)C(=O)Cn2cnc3c(=O)[nH]c(N)nc32)C(=O)Cn2cnc3c(N)nc(NCCCCCN)nc32)C(=O)Cn2cnc3c(=O)[nH]c(N)nc32)C(=O)Cn2cnc3c(=O)[nH]c(N)nc32)C(=O)Cn2cnc3c(N)nc(NCCCCCN)nc32)C(=O)CN2C=NC3C(=O)NC(N)=NC32)C(=O)Cn2ccc(N)nc2=O)C(=O)Cn2cnc3c(=O)[nH]c(NCCCCCCN)nc32)CC(=O)NCCN(CC(=O)NCCN(CC(=O)NCCN(CC(=O)NCCN(CC(=O)NCCN(CC(=O)NCCN(CC(=O)NCCN(CC(=O)NCCN(CC(=O)NCCN(N)C(=O)Cn2cnc3c(=O)[nH]c(N)nc32)C(=O)Cn2cnc3c(N)nc(NCCCCCN)nc32)C(=O)Cn2ccc(N)nc2=O)C(=O)Cn2cnc3c(N)ncnc32)C(=O)Cn2cnc3c(N)ncnc32)C(=O)Cn2cnc3c(=O)[nH]c(NCCCCCCN)nc32)C(=O)Cn2cnc3c(=O)[nH]c(N)nc32)C(=O)Cn2cnc3c(N)ncnc32)C(=O)Cn2cnc3c(=O)[nH]c(N)nc32)c(=O)[nH]c1=O` (centres undefined), for which the Tm in [11] was found to be 68.1 °C; in [6], 64 °C. For the same compound, the Activity result in series [3] was “Dose-dependent-effect”; in series [12] it was “Dose-dependent-effect”; in [8], “Non-toxic”; in series [13], “Dose-dependent-effect”. Besides, the 50% inhibitory concentration (IC50) in series [3] is 0.28 µM. Besides, the inhibition entry in [4] was “Dose-dependent-effect”. The outcome in series [5] was Active. In addition, in series [7], the inhibition entry is “Active”. The outcome in series [9] was inactive.

For `Cc1cn(CC(=O)N(CCNC(=O)CN(CCNC(=O)CN(CCNC(=O)CN(CCNC(=O)CN(CCNC(=O)CN(CCNC(=O)CN(CCNC(=O)CN(CCNC(=O)CN(CCNC(=O)CN(CCNC(=O)CN(CCNC(=O)CN(CCNC(=O)CN(CCNC(=O)CN(CCNC(=O)CN(CCNC(=O)CN(CCNC(=O)CN(CCNC(=O)OCCC2c3ccccc3-c3ccccc32)C(=O)Cn2cnc3c(=O)[nH]c(N)nc32)C(=O)Cn2cnc3c(=O)[nH]c(NCCCCCCN)nc32)C(=O)Cn2cnc3c(=O)[nH]c(N)nc32)C(=O)Cn2ccc(N)nc2=O)C(=O)Cn2cnc3c(N)nc(NCCCCCN)nc32)C(=O)Cn2cnc3c(=O)[nH]c(N)nc32)C(=O)Cn2ccc(N)nc2=O)C(=O)Cn2cnc3c(N)ncnc32)C(=O)Cn2ccc(N)nc2=O)C(=O)Cn2cnc3c(N)nc(NCCCCCN)nc32)C(=O)Cn2cc(C)c(=O)[nH]c2=O)C(=O)Cn2cnc3c(=O)[nH]c(N)nc32)C(=O)Cn2cnc3c(=O)[nH]c(N)nc32)C(=O)Cn2cnc3c(=O)[nH]c(NCCCCCCN)nc32)C(=O)Cn2cc(C)c(=O)[nH]c2=O)C(=O)Cn2cnc3c(=O)[nH]c(N)nc32)CC(N)=O)c(=O)[nH]c1=O`, the Tm came out at 83.5 °C in series [11] and 75.5 °C in [6]. Further, in series [3], the IC50 was greater than 1 µM. Moreover, the inhibition result in series [4] is “Dose-dependent-effect”. Besides, in series [5], the outcome was Active. Further, the inhibition result in series [7] was “Active”. The Activity result in series [8] was “Non-toxic”. Besides, in series [9], the result was inactive.

As usually defined, the IC50 is the concentration needed to halve the response being measured.
